In patent US20120021437A1, “TETRANOR-PGDM/PGJM SPECIFIC IMMUNOGENS, ANTIBODIES, TRACERS, ASSAY KITS AND METHODS FOR MAKING SAME” (Cayman Chemical Company, Incorporated, priority 2010, published 2012):

Test system: Tetranor-PGDM EIA Antiserum
Experiment: Cross-reactivity testing of the antibody in competitive tetranor-PGDM EIA
Details: Specificity of the Tetranor-PGDM EIA Antiserum; Example 3 Step D2c
Protocol: To determine cross-reactivity of an antibody, the standard curve using optimal tracer and Ab dilutions according the kit instructions was set up. Tetranor PGDM was diluted to 10 ng/mL for the first point in the standard curve and diluted 2.5-fold serially 7 times. First standard dilutions (10 μg/mL) of tetranor-PGJM, tetranor-PGEM, tetranor-PGFM, PGA2, PGD2, PGE2, PGF2α, PGJ2, 13,14-dihydro-15-keto PGD2, 13,14-dihydro-15-keto-PGE2, 13,14-dihydro-15-keto-PGF2, were prepared and 7 additional 6-fold serial dilutions were performed. IC50s of all compounds were determined and each percent cross-reactivity (% XR) values of the potentially cross-reactive compounds was determined by dividing the IC50 of tetranor-PGDM by the IC50 of the test compound and multiplying by 100.

Compound | Cross-reactivity (% XR) [%]
CCCCCC(=O)CC[C@@H]1[C@@H](C/C=C\CCCC(=O)O)[C@@H](O)C[C@H]1O [13,14-dihydro-15-keto Prostaglandin F2α] | <0.01
CCCCC[C@H](O)/C=C/[C@H]1C(=O)C=C[C@@H]1C/C=C\CCCC(=O)O [Prostaglandin J2] | <0.01
CCCCCC(=O)CC[C@H]1[C@H](O)CC(=O)[C@@H]1C/C=C\CCCC(=O)O [13,14-dihydro-15-keto Prostaglandin E2] | <0.01
CCCCC[C@H](O)/C=C/[C@H]1C=CC(=O)[C@@H]1C/C=C\CCCC(=O)O [Prostaglandin A2] | <0.01
Prostaglandin F2α | <0.01
CCCCC[C@H](O)/C=C/[C@H]1[C@H](O)CC(=O)[C@@H]1C/C=C\CCCC(=O)O [Prostaglandin E2] | <0.01
O=C(O)CCCCC(=O)CC[C@H]1[C@H](O)CC(=O)[C@@H]1CCC(=O)O [tetranor-PGEM] | 0.3
O=C(O)CCCCC(=O)CC[C@H]1C(=O)C=C[C@@H]1CCC(=O)O [tetranor-PGJM] | 376
CCCCC[C@H](O)/C=C/[C@H]1C(=O)C[C@H](O)[C@@H]1C/C=C\CCCC(=O)O [Prostaglandin D2] | <0.01
O=C(O)CCCCC(=O)CC[C@H]1C(=O)C[C@H](O)[C@@H]1CCC(=O)O [tetranor-PGDM, 9α-hydroxy-11,15-dioxo-13,14-dihydro-2,3,4,5-tetranor-prostan-1,20-dioic acid] | 100
O=C(O)CCCCC(=O)CC[C@@H]1[C@@H](CCC(=O)O)[C@@H](O)C[C@H]1O [tetranor-PGFM] | <0.01
CCCCCC(=O)CC[C@H]1C(=O)C[C@H](O)[C@@H]1C/C=C\CCCC(=O)O [13,14-dihydro-15-keto Prostaglandin D2] | <0.01
